Data set [1] concerns BE(2)-C. Nature of the data set: Cell survival and LD50 determination (trypan blue exclusion). The format is cell-based, human. The conditions noted are these: value (std err). As to the method: (§1) The final concentration of DMSO was maintained at ≤0.5% in all flasks including controls. With each treatment group, duplicate flasks of control cells were grown and harvested alongside treated cells. Each treatment was tested in duplicate in at least two independent experiments (n=4-6 per concentration). Cell numbers were determined after 1 hour, 24 hours, and 48 hours of exposure to drugs using the trypan blue exclusion assay. Aliquots of cell suspension were mixed with a 0.2% solution of trypan blue in PBS (1/1; v/v) and counted in Cellometer® (Nexcelom Bioscience, Lawrence, Mass.). […] The reproductive integrity was also evaluated using a clonogenic survival assay.

The subject of data set [2] is SK-N-SH. Described as above. The format is cell-based, human. To be noted: value (std err). As to the method:
as §1

Another data set deals with U-87 MG. The description is as above. The format is cell-based, human. To be noted: value (std err). As to the method: as §1, with “Compounds 1 or 2 dissolved in DMSO were added to the appropriate cell culture medium in concentrations ranging from 0 μM to 1.5 μM. Higher concentrations were not evaluated as the amount of DMSO required to maintain the drugs' solubility was not compatible with good cell culture conditions. The final” for “The final”
(§2) Results Cell survival and LD50 determination for compounds 1 and 2 on four human cancer cell lines—BE(2)-C(neuroblastoma), SK-N-SH cells (neuroblastoma), U-87 MG (glioblastoma), and U137 MG.

Another data set deals with U137 MG. The description is as above. The data set is classed as cell-based, human. To be noted: value (std err). The procedure: as §1, with “Compounds 1 or 2 dissolved in DMSO were added to the appropriate cell culture medium in concentrations ranging from 0 μM to 1.5 μM. Higher concentrations were not evaluated as the amount of DMSO required to maintain the drugs' solubility was not compatible with good cell culture conditions. The final” for “The final”
as §2

For data set [3], the system named is BE(2)-C neuroblastoma cells. Nature of the data set: Cell survival with drug without and with ionizing radiation (XRT). The data set is classed as cell-based, human. The procedure:
(§3) Alongside all treatment groups, which included: drug alone (n=4), 4 Gy XRT alone (n=4), and drug+XRT (n=4), quadruplicate flasks of controls cells in medium containing DMSO were grown and harvested under identical culture conditions. Each treatment was tested in at least two independent experiments. The final concentration of DMSO was maintained at 0.5% in all flasks including controls. Cells grown in monolayers (50%-60% confluent) were irradiated at the dose of 4 Gy delivered at the dose rate of 1.36 Gy/minute in a Mark I 68A irradiator (J. L. Shepherd & Associates, San Fernando, Calif.). At designated times after treatment, cells were harvested, their numbers determined and plated at 200 and 500 live cells in duplicate or quadruplicate T25 flasks per each treatment. Cells were left undisturbed for ˜7 days after which time fresh medium was added and colonies were allowed to grow for up to 3 weeks. Colonies were washed with PBS, fixed with methanol, and stained with crystal violet. Briefly, colonies were washed with 5 mL ice-cold PBS, followed by 5 mL PBS/methanol (1:1; v/v), and fixed in 5 mL methanol for 10 minutes. Methanol was removed and flasks were left open to dry for a few hours. Crystal violet (3 mL; 0.25% in 1:1 PBS/methanol) was added to each flask to stain cells. After approximately 10 minutes, the dye was removed, flasks were rinsed with tap water followed by distilled water and were left to dry. Colonies were counted by two independent observers using the ImageJ software.

Data set [4] relates to BE(2)-C cells. The experiment in a line: Clonogenic survival (reproductive integrity) with drug without and with XRT. The data set is classed as cell-based, human. The procedure:
as §3

The test system of data set [5] is human glioblastoma cells lines. The experiment in a line: Cytotoxicity of the nonradioactive analogue. The format is cell-based. As to the method: (§4) Cytotoxicity and radiosensitizing properties of the nonradioactive analogue were determined. Specifically, the cytotoxicity of the nonradioactive analogue N-[5-(3′-iodobenzoyl)-1H-benzimidazol-2-yl]carbamate was measured.

For data set [6], the system named is human neuroblastoma cell lines. The experiment in a line: Cytotoxicity of the nonradioactive analogue. The format is cell-based. As to the method:
as §4

A short description of data set [7]: Solubility in common solvents. The format is physicochemical.
Data set [8] has as its system BE(2)-C. Nature of the data set: Extracellular and intracellular D10 of cells exposed to ^131I-4. The format is cell-based, human. To be noted: exposed for 48 hours. The procedure:
(§5) The cell uptake was tested as a function of the radioactive concentration and time of exposure. With each treatment group, triplicate flasks of controls cells in medium without the radioactive drug were grown and harvested alongside treated cells. Aliquots of the radioactive medium were reserved for gamma counting to assess the initial radioactive concentration. Each treatment was tested in triplicate in at least two independent experiments. Groups of treated cells were cultured in radioactive medium for 1 hour, 24 hours, 48 hours, and 72 hours and either harvested at these times or the radioactive medium was removed and replaced with the appropriate nonradioactive medium and then flasks were returned to the incubator for additional 24 hours. Radioactive medium was collected for radioactivity determination, monolayers were washed with ice-cold PBS. Cells used in the subcellular distribution experiments were harvested by scarping and cell numbers were determined. The subcellular distribution of radioactivity was determined as described before using NE-PER™ nuclear and cytoplasmic extraction reagents (Pierce Biotechnology, Rockford, Ill.).
(§6) The cell uptake of ^131I-4 was tested as a function of the radioactive concentration and time of exposure. Groups of treated cells—BE(2)-C (neuroblastoma), SK-N-SH cells (neuroblastoma), and U-87 MG (glioblastoma)—were cultured in radioactive medium for 1 hour, 24 hours, 48 hours, and 72 hours.

In data set [9] the test system is SK-N-SH. The description is as above. The format is cell-based, human. The conditions noted are these: exposed for 48 hours. The procedure: as §5, §6
The next data set deals with U-87MG. The description is as above. The format is cell-based, human. To be noted: exposed for 48 hours. As to the method:
as §5, §6

Another data set deals with U-87 MG xenograft. The experiment in a line: U-87 MG xenograft therapy study in athymic mice. The format is in vivo, athymic Ncr nu/nu mice. As to the method:
(§7) U-87MG cells were injected subcutaneously (SQ) in the dorsal area of the female and male 8-weeks old athymic Ncr nu/nu mice (n=10 per group). When tumor volume reached ˜150 mm^3 mice were randomized into treatment group and “sham” injected control group. The average tumor volumes on day 0 were 177±55 mm^3 and 141±25 mm^3 in the treatment group and untreated controls, respectively. Therapy mice received ^131I-4 at an average dose of 14.5±2.3 MBq/mouse. Tumor volumes and body weights were measured three times per week. When one tumor in control mice exceeded the volume of 3000 mm^3 (i.e., 10% of the body weight), the experiment was terminated. Necropsy was performed. Tumor weights and tumor-associated radioactivity were determined. Blood was collected and hemoglobin and hematocrit values were measured. Tumors sections were also analyzed by macroautoradiography.
U-87MG cells were injected subcutaneously (SQ) in the dorsal area of the female and male 8-weeks old athymic Ncr nu/nu mice (n=10 per group). Therapy mice received ^131I-4 at an average dose of 14.5±2.3 MBq/mouse and tumor volumes and body weights were measured three times per week.

In data set [10] the test system is BE(2)-C cells. The experiment in a line: Colony-forming assay, radiotoxicity of ^131I-radiolabeled drug. The conditions noted are these: for surviving fraction: BE(2)-C. The data set is classed as cell-based, human. As to the method: as §5, §3
In a further data set the test system is SK-N-SH cells. Described as above. To be noted: for surviving fraction: 0.35 MBq/mL. The data set is classed as cell-based, human. The procedure: as §5, §3
The test system of data set [11] is SK-N-SH neuroblastoma, BE(2)-C neuroblastoma, and U-87 MG glioblastoma. Nature of the data set: Survival of neuroblastoma and glioblastoma cells treated with ^131I-4. The format is cell-based, human. To be noted: 0.185 MBq/mL and 0.35 MBq/mL, FIGS. 9A-9C. As to the method:
FIGS. 9A-9C provide images of SK-N-SH neuroblastoma (FIG. 9A), BE(2)-C neuroblastoma (FIG. 9B), and U-87 MG glioblastoma (FIG. 9C) untreated or treated with compound ^131I-4 at 0.185 MBq/mL and 0.35 MBq/mL. Graphs of the cell uptake and clonogenic survival of the cells are also provided.
The survival of human neuroblastoma and glioblastoma cells either left untreated or treated with compound ^131I-4 at 0.185 MBq/mL and 0.35 MBq/mL was determined. The cell uptake and clonogenic survival of SK-N-SH neuroblastoma, BE(2)-C neuroblastoma, and U-87 MG glioblastoma was also determined (FIGS. 9A-9C).

Data set [12] in a line: Hematocrit and hemoglobin in treated mice. The conditions noted are these: terminal necropsy after therapy. The format is in vivo, athymic Ncr nu/nu mice. The procedure:
as §7
The average and median weights of tumor extirpated from untreated control mice (NT) and ^131I-4 treated mice at the terminal necropsy after the therapy was also determined (FIG. 10A). Hematocrit and hemoglobin values in ^131I-4-treated and control (NT) mice were also determined (FIGS. 10B and 10C). FIGS. 10D and 10E also show macroautoradiography of sections of two tumors extirpated.

The structures appear in SMILES notation.

`COC(=O)Nc1nc2cc(C(=O)c3cccc(I)c3)ccc2[nH]1` [Compound 2, Methyl N [5-(3′-iodobenzoyl)-1H-benzimidazol-2-yl]carbamate]: the LD50 with BE(2)-C [1] is 0.02 (0.01) uM; in the data set on SK-N-SH [2], 1.29 (0.24) uM; with U-87 MG it was 0.20 (0.06) uM; in the data set on U137 MG, 2.62 (1.35) uM. In addition, the cancer cells surviving in data set [3] (1 micromolar combined with 4 Gy ionizing radiation (XRT)) worked out at 4.8%. This compound gave a cancer cells killed in data set [3] (1 micromolar, 24 hour exposure) of 89.8%. Moreover, the “surviving fractions, cytotoxicity” value in data set [3] (SK-N-SH and BE(2)-C cells, 1 μM, without and with XRT, 24 hours after treatment, FIG. 8A) was “very cytotoxic to the cancer cells, particularly in combination with irradiation”. In addition, the “clonogenic survival, cytotoxicity” value with BE(2)-C cells [4] (BE(2)-C, 1 μM for 24 hours, without and with 4 Gy, FIGS. 8B and 8C) is recorded as “very cytotoxic to the cancer cells, particularly in combination with irradiation”. In addition, the “cells surviving, reproductive integrity assay” value with BE(2)-C cells [4] (combined treatment of 4 Gy XRT and drug) is on record as below 0.9%; in the data set on BE(2)-C cells [4] (drug alone), 7.8%. For the same compound, the cytotoxicity result in data set [5] is “micromolar range”; in data set [6], “low nM range”. Moreover, in data set [7], the “solubility in common solvents” value is “quite low solubility”.
For the compound `COC(=O)Nc1nc2cc(C(=O)c3cccc([131I])c3)ccc2[nH]1` [^131I-4, Methyl N-[5-(3′-[^125/131I]iodobenzoyl)-1H-benzimidazol-2-yl]carbamate], the D10 extracellular in the data set with BE(2)-C [8] is on record as 0.176 MBq/mL; in the data set on SK-N-SH [9], 0.410 MBq/mL; with U-87MG, 0.740 MBq/mL. The D10 intracellular in the data set with BE(2)-C [8] is on record as 3,010 (395) decays/cell; with BE(2)-C [8] (value (std err)), 0.36 (0.05) cpm/cell; in the data set on SK-N-SH [9] it was 7,620 (530) decays/cell; in the data set on SK-N-SH [9] (value (std err)), 0.82 (0.09) cpm/cell; in the data set with U-87MG, 14,760 (2,550) decays/cell; in the data set with U-87MG (value (std err)) it was 1.73 (0.34) cpm/cell. For the same compound, the “tumor growth compared to untreated control mice” value in the data set with U-87 MG xenograft (14.5±2.3 MBq/mouse) is “dramatically decreases tumor growth”. For the same compound, the xenograft volume median came out at 122 mm^3 with U-87 MG xenograft (day 0 after treatment); 169 mm^3 in the data set with U-87 MG xenograft (day 4 after treatment); 281 mm^3 with U-87 MG xenograft (day 7 after treatment); 292 mm^3 in the data set with U-87 MG xenograft (day 9 after treatment); 320 mm^3 in the data set on U-87 MG xenograft (day 11 after treatment). Further, the “xenograft volume avg (std err)” value in the data set on U-87 MG xenograft (day 0 after treatment, 14.5±2.3 MBq/mouse) is 177 (55) mm^3; in the data set on U-87 MG xenograft (day 4 after treatment, 14.5±2.3 MBq/mouse), 251 (88) mm^3; in the data set on U-87 MG xenograft (day 7 after treatment, 14.5±2.3 MBq/mouse), 277 (76) mm^3; with U-87 MG xenograft (day 9 after treatment, 14.5±2.3 MBq/mouse), 456 (165) mm^3; in the data set with U-87 MG xenograft (day 11 after treatment, 14.5±2.3 MBq/mouse), 444 (163) mm^3. Moreover, in the data set with U-87 MG xenograft (sections of extirpated tumors), the “tumor infiltration (macroautoradiography)” value is “infiltrates tumors”. The surviving fraction in the data set with BE(2)-C cells [10] (24 hour exposure to 0.35 MBq) stood at 0.51±0.067; in the data set on BE(2)-C cells [10] (48 hour exposure to 0.35 MBq) it was 0.06±0.02; with BE(2)-C cells [10] (72 hour exposure to 0.29 MBq), 0.010±0.004; in the data set with SK-N-SH cells (24 hours) it was 0.68±0.069; in the data set with SK-N-SH cells (48 hours) it was 0.08±0.04. The survivors entry with BE(2)-C cells [10] (at higher concentrations) is recorded as “no survivors”. In the data set on SK-N-SH cells (72 hour exposure), the colonies entry is reported as “no colonies”. In addition, the “cytotoxicity, cell survival” value in data set [11] was “cytotoxic to neuroblastoma and glioblastoma cells”. In addition, the “adverse reactions in the blood (hematocrit, hemoglobin)” value in data set [12] is given as “adverse reactions in the blood were not observed”.

(Values after patent US11607464B2, “Compositions and methods for the treatment and imaging of cancer” (BOARD OF REGENTS OF THE UNIVERSITY OF NEBRASKA, priority 2018, dated 2023).)
